One experiment deals with COX-1 (Homo sapiens, UniProt P23219). Put plainly: Microsomal assay, inhibition of COX-1. The experiment is classed as biochemical. The procedure: (§1) Inhibitory activity against microsomal h-COX2 was assessed against a microsomal preparation from baculovirus infected SF9 cells. An aliquot of microsomal preparation was thawed slowly on ice and a 1/40,000 dilution prepared from it into the assay buffer (sterile water, degassed with argon containing 100 mM HEPES (pH 7.4), 10 mM EDTA (pH7.4), 1 mM phenol, 1 mM reduced glutathione, 20 mg/ml gelatin and 0.001 mM Hematin). Once diluted the enzyme solution was then sonicated for 5 seconds (Branson sonicator, setting 4, 1 cm tip) to ensure a homogeneous suspension. 155 μl enzyme solution was then added to each well of a 96-well microtitre plate containing either […] test compound (40×required test concentration) or 5 μl DMSO for controls. Plates were then mixed and incubated at room temperature for 1 hour. Following the incubation period, 40 μl of 0.5 μM arachidonic acid was added to each well to give a final concentration of 0.1 μM. Plates were then mixed and incubated for exactly 10 minutes (room temperature) prior to addition of 25 μl 1M HCl (hydrochloric acid) to each well to stop the reaction. 25 μl of 1M NaOH (sodium hydroxide) was then added to each well to neutralise the solution prior to determination of PGE2 levels by enzyme immunoassay (EIA).
Sequence of COX-1 (P23219 24-599): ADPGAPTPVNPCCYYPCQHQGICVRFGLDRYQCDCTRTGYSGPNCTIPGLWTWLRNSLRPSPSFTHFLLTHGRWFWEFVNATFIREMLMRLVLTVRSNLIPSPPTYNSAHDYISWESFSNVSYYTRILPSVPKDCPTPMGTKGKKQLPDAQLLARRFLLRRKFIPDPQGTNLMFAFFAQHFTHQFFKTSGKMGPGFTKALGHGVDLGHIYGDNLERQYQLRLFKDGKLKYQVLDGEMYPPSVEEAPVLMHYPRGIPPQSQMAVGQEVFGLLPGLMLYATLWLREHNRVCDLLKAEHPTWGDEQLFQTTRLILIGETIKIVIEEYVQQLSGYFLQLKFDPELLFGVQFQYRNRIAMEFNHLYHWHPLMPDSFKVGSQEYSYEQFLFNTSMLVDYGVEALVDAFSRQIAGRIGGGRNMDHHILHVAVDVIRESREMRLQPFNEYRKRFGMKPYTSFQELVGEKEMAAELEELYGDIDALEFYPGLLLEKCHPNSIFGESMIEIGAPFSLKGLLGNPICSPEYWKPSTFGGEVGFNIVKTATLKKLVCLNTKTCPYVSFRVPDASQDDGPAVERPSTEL
(§2) The following IC50 value for inhibition of COX-2 and COX-1 were obtained from the microsomal assay for compounds of the invention: […]

The target of another experiment is T1, microsomal h-COX2 (Homo sapiens, UniProt P35354).
T1 construct: made in house; host or cells: baculovirus infected SF9 cells (microsomal preparation)
T1 sequence (P35354 18-604): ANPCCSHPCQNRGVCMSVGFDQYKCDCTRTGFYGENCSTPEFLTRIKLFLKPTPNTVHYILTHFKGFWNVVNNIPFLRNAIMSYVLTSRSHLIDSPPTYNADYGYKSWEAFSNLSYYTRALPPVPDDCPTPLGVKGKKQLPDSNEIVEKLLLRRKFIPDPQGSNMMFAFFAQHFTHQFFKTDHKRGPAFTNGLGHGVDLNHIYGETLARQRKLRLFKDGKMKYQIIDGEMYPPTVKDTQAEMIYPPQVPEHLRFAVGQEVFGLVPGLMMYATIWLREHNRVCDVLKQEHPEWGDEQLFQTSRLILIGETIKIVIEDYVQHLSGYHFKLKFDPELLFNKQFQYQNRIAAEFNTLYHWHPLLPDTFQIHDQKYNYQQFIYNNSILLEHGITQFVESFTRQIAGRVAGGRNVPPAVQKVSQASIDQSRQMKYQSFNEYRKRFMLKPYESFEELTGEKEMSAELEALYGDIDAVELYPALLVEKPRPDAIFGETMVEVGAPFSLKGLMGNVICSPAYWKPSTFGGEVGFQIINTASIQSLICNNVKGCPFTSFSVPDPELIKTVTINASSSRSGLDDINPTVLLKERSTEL
The experiment is described as follows: Microsomal assay, inhibition of h-COX2. It is filed as biochemical. The note with it: microsomal preparation from baculovirus infected SF9 cells; PGE2 by EIA; read-out: COX-2: IC50. The protocol:
as §1, §2

This note sets out measurements from patent publication US7056928B2, “Pyrimidine derivatives as selective inhibitors of COX-2” (Glaxo Group Limited, priority 2001, dated 2006).

SMILES strings stand for the structures.

`CS(=O)(=O)c1ccc(-c2cc(CF)nc(NCc3ccccc3)n2)cc1` [Example 1, 4-[4-(Methylsulfonyl)phenyl]-N-(Phenylmethyl)-6(fluoromethyl)pyrimidin-2-amine]: the IC50 on COX-1 is 17.7 µM; at microsomal h-COX2, 0.022 µM.

One may read the IC50 as the concentration needed to halve the response being measured.
